From paper PMC8569811, “The Nonphysiological Reductant Sodium Dithionite and [FeFe] Hydrogenase: Influence on the Enzyme Mechanism” (Journal of the American Chemical Society, 2021)

Legend:
[1] = target: T1, CpHydA1 ([FeFe] hydrogenase HydA1) (Clostridium pasteurianum, UniProt P29166); assay: IR spectroscopy, conversion to HoxH with Na2SO3 at low pH; type: binding
T1 sequence (P29166 1-574): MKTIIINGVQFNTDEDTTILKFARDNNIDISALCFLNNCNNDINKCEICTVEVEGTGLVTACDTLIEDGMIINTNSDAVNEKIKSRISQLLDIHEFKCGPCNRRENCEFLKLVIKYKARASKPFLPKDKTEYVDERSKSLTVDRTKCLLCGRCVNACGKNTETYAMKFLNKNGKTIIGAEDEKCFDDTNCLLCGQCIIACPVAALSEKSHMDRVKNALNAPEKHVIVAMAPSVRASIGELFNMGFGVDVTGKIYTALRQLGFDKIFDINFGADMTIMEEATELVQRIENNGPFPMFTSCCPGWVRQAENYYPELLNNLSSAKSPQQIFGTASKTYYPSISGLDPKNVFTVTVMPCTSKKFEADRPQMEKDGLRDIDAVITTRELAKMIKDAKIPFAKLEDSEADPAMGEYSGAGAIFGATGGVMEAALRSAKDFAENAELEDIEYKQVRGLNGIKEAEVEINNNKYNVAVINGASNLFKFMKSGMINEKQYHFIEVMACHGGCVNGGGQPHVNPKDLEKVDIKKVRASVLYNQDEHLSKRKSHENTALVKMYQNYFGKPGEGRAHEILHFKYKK

[2] = target: T2, CrHydA1 ([FeFe] hydrogenase) (Chlamydomonas reinhardtii, UniProt Q9FYU1); assay: IR titration with Na2SO3 (source of SO2) at pH […] and […] fit; type: binding
T2 construct: gene hyd1; CrHydA1^PDT (chemical variant with propane dithiolate bridging ligand in [2Fe]H)
T2 sequence (Q9FYU1 57-497): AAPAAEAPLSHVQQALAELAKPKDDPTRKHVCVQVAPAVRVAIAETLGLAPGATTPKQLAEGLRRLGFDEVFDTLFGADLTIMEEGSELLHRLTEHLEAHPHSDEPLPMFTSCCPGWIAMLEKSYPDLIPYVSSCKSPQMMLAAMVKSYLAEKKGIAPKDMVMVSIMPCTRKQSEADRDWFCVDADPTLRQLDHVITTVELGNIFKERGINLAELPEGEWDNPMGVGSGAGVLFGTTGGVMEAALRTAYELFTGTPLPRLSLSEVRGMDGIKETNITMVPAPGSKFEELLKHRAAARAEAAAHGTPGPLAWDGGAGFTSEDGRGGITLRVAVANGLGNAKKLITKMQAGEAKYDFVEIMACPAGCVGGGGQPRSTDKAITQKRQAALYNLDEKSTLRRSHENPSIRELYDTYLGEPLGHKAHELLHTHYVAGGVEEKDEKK

Compound: O=S=O [SO2]
- IR spectroscopy, conversion to HoxH with Na2SO3 at low pH [1]: SO2 binding caused formation of HoxH not only with CrHydA1 but also with the bacterial enzymes CpHydA1 and DdHydAB
- Kd [2]: ~500 nM
